This is an account of results in patent publication US20250003972A1, “A METHOD OF DETERMINING THE PRESENCE OF AN ANALYTE IN A SAMPLE” (Valitacell Limited, priority 2021, published 2025).

The test concerns non-monomer IgG. Put plainly: DAOTA fluorescence polarisation (FP) assay: HMWS IgG (non-monomer) spiked into monomer IgG in culture media. Type of test: binding. To be noted: cell culture media; FP (mP) signal vs percentage non-monomer. The method, then: Non-monomer IgG was sourced internally. This was obtained by size exclusion chromatography from Chinese Hamster Ovary (CHO) cell supernatant (this is a naturally occurring non-monomer IgG).
FP readings were made using an BMG Pherastar plate reader (BMG, […], Germany) in black half area NBS plates in a total of 120 ul (Corning, New York, USA).
For DAOTA FP assays, high molecular weight species (HMWS) of IgG (non-monomer) was spiked into monomer IgG in various proportions in 120 ul total of culture media (CD-CHO, ThermoFisher, UK) at a constant at a concentration of 200 mg/L. 0.1 ug of an N′-propyl, N-propyl derivative of diazaoxatriangulenium (N′PNP-DAOTA) was added, and the polarization signal was measured after 5 minutes incubation in the dark.

`CCCn1c2cccc3oc4cccc5c4[c+](c32)c2c1cccc2n5CCC` [N′PNP-DAOTA, N′-propyl, N-propyl derivative of diazaoxatriangulenium]: the “binding to non-monomer IgG / IgG aggregates (FP polarisation signal)” value is on record as “binds to non-monomer IgG”.
In the case of “N-butanoic acid aza-di-oxa-triangulenium [N-Phenyl-ADOTA]” it was “did not bind to IgG aggregates”.
